Experimental data reported in patent publication US8703961B2, “Thiazole derivatives for the treatment of diseases such as cancer” (Merck Patent GmbH, priority 2009, dated 2014).
pIC50: −log10 of the molar value.

Key:
Type in all cases: biochemical
PDPK1 = target: T1, PDPK1 (Homo sapiens, UniProt O15530); test: filter binding kinase assay (second PDPK1 line); details: derived from % inhibition at 1 μM
T1 construct: purchased
T1 sequence (O15530 1-556): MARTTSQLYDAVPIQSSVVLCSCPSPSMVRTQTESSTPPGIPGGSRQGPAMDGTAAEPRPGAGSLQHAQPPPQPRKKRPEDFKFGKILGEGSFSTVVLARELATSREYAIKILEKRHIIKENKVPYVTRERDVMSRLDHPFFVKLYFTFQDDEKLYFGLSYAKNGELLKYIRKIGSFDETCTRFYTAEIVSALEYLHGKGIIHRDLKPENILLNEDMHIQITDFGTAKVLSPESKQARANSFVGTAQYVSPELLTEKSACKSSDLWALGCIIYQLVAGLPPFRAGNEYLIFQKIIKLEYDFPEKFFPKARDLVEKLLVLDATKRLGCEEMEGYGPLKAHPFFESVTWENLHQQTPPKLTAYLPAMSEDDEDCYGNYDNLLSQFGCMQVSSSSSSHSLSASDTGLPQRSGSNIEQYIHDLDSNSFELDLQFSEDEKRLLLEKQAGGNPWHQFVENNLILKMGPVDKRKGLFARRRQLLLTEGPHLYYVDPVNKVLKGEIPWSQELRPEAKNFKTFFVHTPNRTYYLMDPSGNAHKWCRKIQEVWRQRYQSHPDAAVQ
Experimental: (§1) All kinase assays were carried out using the Multidrop 384 from Thermo-Fisher at room temperature in a total assay volume of 25.5 μl. 15 μl of an enzyme mix comprising enzyme and substrate in buffer are added to the test batch comprising either 0.5 μl of test substance, DMSO control or empty container. Test substances are pre-incubated in the presence of the enzyme and substrate for 5 minutes before the reaction is initiated by addition of 10 μl of ATP (concentration kinase-dependent of […]). The reaction is terminated by addition of 5 μl of orthophosphoric acid (50 mM). The test containers are then transferred onto P81 Unifilter plates by means of a “Packard Harvester” and dried in air. The dry Unifilter plates are sealed after the addition of MicroScint O, and the radioactivity is determined in a Packard Topcount NXT.

NUAK1 = target: T2, NUAK1 (Homo sapiens, UniProt O60285); test: filter binding assay of NUAK1 inhibition; details: for pIC50: derived from % inhibition at 1 μM; for remaining activity at 1 µM: read-out: residual kinase activity NUAK1
T2 construct: purchased
T2 sequence (O60285 1-661): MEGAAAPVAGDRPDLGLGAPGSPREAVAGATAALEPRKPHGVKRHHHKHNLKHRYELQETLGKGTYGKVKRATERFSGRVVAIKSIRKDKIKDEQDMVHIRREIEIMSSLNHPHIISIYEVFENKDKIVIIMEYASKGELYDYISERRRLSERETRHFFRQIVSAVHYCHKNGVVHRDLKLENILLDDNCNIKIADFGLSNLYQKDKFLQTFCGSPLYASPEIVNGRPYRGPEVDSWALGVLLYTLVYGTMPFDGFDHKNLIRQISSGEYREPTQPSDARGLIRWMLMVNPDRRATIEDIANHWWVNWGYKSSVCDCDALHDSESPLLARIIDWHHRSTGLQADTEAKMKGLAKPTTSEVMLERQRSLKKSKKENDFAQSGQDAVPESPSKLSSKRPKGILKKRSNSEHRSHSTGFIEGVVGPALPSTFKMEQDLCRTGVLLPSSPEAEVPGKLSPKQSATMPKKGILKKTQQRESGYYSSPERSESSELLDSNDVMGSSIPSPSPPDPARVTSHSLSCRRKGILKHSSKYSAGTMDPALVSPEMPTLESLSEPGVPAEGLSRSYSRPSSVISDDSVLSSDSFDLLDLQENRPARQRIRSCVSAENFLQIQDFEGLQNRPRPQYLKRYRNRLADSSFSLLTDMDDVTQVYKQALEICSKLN
Experimental: as §1
NUAK1 (5-20 mU diluted in 50 mM Tris pH 7.5, 0.1 mM EGTA, 0.1% β-mercaptoethanol, 1 mg/ml of BSA) is tested against ALNRTSSDSALHRRR as substrate. The final volume of 25.5 μl contains 50 mM Tris pH 7.5, 0.1 mM EGTA, 0.3 mM ALNRTSSDSALHRRR, 10 mM magnesium acetate and 0.02 mM [^33P-γ-ATP] (50-1000 cpm/pmole) and is incubated at room temperature for 30 min. Tests are terminated by the addition of 5 μl of a 0.5 M (3%) orthophosphoric acid soln. and then transferred onto P81 Unifilter plates and washed with 50 mM orthophosphoric acid buffer.

PDPK1 (PDK1) = target: T3, PDPK1 (PDK1) (Homo sapiens, UniProt O15530); test: filter binding kinase assay; details: for pIC50: derived from % inhibition at 1 μM, first PDPK1 line
T3 construct: purchased
T3 sequence (O15530 1-556): T1 sequence (O15530 1-556)
Experimental: as §1

AURKA (Aurora A) = target: T4, AURKA (Aurora A) (Homo sapiens, UniProt O14965); test: filter binding kinase assay; details: for pIC50: derived from % inhibition at 1 μM; for remaining activity at 1 µM: read-out: residual kinase activity Aurora A
T4 construct: purchased
T4 sequence (O14965 1-403): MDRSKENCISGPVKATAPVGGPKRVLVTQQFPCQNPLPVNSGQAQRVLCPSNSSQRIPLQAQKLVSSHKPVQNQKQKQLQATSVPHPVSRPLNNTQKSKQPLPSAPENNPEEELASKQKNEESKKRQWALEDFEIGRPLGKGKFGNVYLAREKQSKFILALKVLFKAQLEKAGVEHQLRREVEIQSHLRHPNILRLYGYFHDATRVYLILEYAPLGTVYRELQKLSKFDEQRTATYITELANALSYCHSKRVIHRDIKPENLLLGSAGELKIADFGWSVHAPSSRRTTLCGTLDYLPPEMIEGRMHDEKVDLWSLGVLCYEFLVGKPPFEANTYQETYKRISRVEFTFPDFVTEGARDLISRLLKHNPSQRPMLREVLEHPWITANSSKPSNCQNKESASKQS
Experimental: as §1

PKN2 (PRK2) = target: T5, PKN2 (PRK2) (Homo sapiens, UniProt Q16513); test: filter binding kinase assay; details: for pIC50: derived from % inhibition at 1 μM
T5 construct: purchased
Experimental: as §1

MET = target: T6, MET (Homo sapiens, UniProt P08581); test: filter binding kinase assay; details: derived from % inhibition at 1 μM
T6 construct: 6His (N); purchased Upstate 14-526; host or cells: insect cells (Sf21; S. frugiperda), baculovirus
Experimental: as §1

HIPK3 = target: T7, HIPK3 (Homo sapiens, UniProt Q9H422); test: filter binding kinase assay; details: derived from % inhibition at 1 μM
T7 construct: purchased
Experimental: as §1

BTK = target: T8, BTK (Homo sapiens, UniProt Q06187); test: filter binding kinase assay; details: derived from % inhibition at 1 μM
T8 construct: purchased
Experimental: as §1

PIM2 = target: T9, PIM2 (Homo sapiens, UniProt Q9P1W9); test: filter binding kinase assay; details: derived from % inhibition at 1 μM
T9 construct: purchased
Experimental: as §1

SRC = target: T10, SRC (Homo sapiens, UniProt P12931); test: filter binding kinase assay; details: derived from % inhibition at 1 μM
T10 construct: purchased
Experimental: as §1

T8 sequence (Q06187 whole entry, species assumed): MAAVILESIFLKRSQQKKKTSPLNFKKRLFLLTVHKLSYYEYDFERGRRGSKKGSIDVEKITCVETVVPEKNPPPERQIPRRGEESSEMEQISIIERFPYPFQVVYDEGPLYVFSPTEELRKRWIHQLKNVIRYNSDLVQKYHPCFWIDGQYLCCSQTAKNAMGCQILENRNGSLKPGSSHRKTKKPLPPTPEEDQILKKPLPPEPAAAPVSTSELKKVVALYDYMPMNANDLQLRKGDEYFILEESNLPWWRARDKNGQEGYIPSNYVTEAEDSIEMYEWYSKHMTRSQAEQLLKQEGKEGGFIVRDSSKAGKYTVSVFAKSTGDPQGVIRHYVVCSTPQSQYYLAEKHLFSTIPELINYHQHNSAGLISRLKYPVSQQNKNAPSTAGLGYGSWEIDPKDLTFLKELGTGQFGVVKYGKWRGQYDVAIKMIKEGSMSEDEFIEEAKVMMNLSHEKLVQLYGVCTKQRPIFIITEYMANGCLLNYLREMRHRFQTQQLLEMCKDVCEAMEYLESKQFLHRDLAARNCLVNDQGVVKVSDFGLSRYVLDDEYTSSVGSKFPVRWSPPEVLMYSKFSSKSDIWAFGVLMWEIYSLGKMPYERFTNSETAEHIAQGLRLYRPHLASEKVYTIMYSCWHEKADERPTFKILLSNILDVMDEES
T7 sequence (Q9H422 whole entry, species assumed): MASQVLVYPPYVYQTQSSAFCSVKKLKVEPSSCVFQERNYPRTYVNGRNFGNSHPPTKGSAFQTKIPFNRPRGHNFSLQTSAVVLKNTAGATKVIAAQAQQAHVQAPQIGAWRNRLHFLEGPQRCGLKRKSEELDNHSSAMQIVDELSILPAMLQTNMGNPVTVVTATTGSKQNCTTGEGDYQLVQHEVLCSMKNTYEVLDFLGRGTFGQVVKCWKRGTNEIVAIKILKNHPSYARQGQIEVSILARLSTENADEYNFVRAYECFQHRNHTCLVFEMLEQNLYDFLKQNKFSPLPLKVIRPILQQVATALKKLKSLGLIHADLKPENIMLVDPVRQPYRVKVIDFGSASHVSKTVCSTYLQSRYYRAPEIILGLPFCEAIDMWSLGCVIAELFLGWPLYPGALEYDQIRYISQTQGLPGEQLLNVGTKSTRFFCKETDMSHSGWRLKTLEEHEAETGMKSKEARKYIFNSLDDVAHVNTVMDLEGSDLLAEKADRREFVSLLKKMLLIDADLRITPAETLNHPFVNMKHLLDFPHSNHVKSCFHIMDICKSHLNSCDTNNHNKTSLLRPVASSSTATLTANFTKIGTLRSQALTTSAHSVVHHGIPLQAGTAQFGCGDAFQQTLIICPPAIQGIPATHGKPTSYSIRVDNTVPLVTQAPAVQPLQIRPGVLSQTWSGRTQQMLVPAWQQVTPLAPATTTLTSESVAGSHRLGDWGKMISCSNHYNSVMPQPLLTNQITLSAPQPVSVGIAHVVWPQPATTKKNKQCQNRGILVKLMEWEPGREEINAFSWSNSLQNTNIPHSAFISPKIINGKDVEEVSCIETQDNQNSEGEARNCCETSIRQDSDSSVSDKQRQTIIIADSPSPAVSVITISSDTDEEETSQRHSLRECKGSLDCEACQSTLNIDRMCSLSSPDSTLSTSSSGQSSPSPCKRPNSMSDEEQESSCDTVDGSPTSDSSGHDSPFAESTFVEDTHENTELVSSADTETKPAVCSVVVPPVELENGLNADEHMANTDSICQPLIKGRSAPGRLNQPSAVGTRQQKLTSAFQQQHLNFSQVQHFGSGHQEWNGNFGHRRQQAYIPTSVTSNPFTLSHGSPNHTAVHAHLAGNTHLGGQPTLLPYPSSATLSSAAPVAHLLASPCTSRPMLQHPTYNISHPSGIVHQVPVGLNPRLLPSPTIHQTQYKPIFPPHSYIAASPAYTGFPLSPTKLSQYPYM
T6 sequence (P08581 25-1390): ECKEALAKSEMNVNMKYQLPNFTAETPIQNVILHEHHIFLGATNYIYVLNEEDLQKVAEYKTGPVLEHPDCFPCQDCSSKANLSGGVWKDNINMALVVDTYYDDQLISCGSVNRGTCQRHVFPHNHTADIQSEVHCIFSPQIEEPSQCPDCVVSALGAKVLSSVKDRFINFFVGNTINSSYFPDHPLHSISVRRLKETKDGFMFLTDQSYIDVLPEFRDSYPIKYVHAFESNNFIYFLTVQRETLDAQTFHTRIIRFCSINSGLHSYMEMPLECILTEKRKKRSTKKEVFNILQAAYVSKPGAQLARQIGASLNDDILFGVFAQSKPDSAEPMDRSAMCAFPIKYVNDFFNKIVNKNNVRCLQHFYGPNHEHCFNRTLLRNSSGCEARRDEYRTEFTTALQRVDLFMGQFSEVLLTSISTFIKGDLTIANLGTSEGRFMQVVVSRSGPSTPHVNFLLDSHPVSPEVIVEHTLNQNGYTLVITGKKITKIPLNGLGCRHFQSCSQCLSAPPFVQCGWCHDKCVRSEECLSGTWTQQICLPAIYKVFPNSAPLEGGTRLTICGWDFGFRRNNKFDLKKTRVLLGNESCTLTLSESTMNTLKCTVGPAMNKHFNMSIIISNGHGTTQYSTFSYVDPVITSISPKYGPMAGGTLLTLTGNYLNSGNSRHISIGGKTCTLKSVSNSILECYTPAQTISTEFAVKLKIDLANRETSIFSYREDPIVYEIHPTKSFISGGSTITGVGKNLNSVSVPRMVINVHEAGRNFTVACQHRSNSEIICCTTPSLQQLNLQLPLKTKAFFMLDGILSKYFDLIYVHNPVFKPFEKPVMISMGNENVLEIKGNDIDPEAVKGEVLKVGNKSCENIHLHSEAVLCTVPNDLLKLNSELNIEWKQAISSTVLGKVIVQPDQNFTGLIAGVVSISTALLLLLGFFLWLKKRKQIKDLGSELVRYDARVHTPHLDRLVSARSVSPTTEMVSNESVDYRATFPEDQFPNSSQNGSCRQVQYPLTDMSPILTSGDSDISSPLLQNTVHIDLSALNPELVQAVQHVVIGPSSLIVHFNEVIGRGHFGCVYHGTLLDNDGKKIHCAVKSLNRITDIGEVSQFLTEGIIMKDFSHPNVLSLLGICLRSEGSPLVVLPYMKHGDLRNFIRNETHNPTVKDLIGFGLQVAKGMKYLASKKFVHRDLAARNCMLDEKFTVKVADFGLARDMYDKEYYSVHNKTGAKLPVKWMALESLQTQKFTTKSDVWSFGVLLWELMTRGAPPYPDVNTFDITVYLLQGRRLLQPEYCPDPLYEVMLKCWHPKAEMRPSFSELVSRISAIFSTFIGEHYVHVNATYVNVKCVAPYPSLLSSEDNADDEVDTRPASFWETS
T5 sequence (Q16513 whole entry, species assumed): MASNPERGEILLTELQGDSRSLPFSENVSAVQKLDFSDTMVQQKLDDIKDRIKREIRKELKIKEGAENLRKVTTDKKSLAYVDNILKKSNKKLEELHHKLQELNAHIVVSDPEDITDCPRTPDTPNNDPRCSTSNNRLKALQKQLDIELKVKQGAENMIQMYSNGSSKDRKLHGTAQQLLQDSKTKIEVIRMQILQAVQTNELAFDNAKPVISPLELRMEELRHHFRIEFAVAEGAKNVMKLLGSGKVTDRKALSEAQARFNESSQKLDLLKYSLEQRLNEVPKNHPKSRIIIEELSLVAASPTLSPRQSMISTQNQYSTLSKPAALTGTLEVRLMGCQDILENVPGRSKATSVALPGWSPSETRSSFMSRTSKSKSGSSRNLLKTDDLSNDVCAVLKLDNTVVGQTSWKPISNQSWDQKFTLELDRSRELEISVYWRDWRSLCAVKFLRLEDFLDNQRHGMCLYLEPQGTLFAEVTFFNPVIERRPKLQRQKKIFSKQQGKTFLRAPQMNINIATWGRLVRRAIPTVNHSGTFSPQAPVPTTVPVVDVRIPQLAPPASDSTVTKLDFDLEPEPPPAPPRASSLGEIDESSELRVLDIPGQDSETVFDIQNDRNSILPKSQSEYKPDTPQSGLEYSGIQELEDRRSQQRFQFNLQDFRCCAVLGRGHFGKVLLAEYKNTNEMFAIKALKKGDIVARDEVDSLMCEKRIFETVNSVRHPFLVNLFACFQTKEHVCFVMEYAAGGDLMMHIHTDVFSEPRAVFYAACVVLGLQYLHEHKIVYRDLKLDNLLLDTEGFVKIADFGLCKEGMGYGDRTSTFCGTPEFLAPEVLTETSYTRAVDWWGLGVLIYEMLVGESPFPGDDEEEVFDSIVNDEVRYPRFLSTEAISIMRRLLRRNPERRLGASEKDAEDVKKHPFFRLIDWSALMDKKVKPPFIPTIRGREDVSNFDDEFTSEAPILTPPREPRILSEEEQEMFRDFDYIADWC
T9 sequence (Q9P1W9 whole entry, species assumed): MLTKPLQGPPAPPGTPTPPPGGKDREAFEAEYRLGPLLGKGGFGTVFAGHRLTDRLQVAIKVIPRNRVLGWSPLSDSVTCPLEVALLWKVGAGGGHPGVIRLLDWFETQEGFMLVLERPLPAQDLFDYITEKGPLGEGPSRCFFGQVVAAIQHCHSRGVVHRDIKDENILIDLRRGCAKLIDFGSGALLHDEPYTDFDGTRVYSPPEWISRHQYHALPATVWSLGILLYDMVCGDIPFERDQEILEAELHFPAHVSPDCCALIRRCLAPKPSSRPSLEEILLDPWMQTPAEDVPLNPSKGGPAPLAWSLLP
T10 sequence (P12931 whole entry, species assumed): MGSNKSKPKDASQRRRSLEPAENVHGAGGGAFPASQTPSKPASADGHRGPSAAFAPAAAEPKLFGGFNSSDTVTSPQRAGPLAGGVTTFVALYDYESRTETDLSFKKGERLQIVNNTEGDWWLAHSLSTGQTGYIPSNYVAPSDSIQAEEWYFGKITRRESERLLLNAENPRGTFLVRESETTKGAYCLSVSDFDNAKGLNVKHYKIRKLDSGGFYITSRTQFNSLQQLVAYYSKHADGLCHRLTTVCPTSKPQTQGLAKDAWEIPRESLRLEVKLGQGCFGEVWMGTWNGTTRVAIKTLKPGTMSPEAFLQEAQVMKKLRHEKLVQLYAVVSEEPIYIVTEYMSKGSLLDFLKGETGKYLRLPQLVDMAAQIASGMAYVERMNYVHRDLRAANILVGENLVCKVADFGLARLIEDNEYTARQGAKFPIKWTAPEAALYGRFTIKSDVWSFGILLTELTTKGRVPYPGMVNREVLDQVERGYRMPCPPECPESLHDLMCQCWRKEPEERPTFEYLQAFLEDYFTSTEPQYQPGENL

| Structure (SMILES) | pIC50 (PDPK1) | pIC50 (NUAK1) | remaining activity at 1 µM (NUAK1) [%] | pIC50 (PDPK1 (PDK1)) | pIC50 (AURKA (Aurora A)) | remaining activity at 1 µM (AURKA (Aurora A)) [%] | pIC50 (PKN2 (PRK2)) | pIC50 (MET) | pIC50 (HIPK3) | pIC50 (BTK) | pIC50 (PIM2) | pIC50 (SRC) | remaining activity at 1 µM (PDPK1 (PDK1); read-out: residual kinase activity PDK1) [%] | remaining activity at 1 µM (PKN2 (PRK2); read-out: residual kinase activity PRK2) [%] |
| --- | --- | --- | --- | --- | --- | --- | --- | --- | --- | --- | --- | --- | --- | --- |
| c1ccc(Cc2c[nH]c3ncsc23)cc1 [Compound A7, 6-benzyl-4H-pyrrolo[2,3-d]thiazole] | < 6.00 | 6.00 to 8.00 | 27 | < 6.00 | 6.00 to 8.00 | 33 | 5.00 to 6.00 | 5.00 to 6.00 | 5.00 to 6.00 | 4.00 to 5.00 | < 6.00 | 5.00 to 6.00 | – | – |
| Nc1ncsc1C#Cc1cnc2[nH]ccc2c1 [Compound A22, 5-(1H-pyrrolo[2,3-b]pyridin-5-ylethynyl)thiazol-4-ylamine] | 5.00 to 6.00 | 6.00 to 8.00 | 16 | 5.00 to 6.00 | 6.00 to 8.00 | 39 | 6.00 to 8.00 | < 6.00 | 5.00 to 6.00 | 4.00 to 5.00 | 4.00 to 5.00 | 4.00 to 5.00 | 53 | 38 |
| CC(C)(C)OC(=O)Nc1nc(-c2ccncc2)sc1C#CCN1CCOCC1 [Compound A25, tert-butyl[5-(3-morpholin-4-ylprop-1-ynyl)-2-pyridin-4-ylthiazol-4-yl]-carbamate] | < 6.00 | 4.00 to 5.00 | – | < 6.00 | < 6.00 | – | < 6.00 | < 6.00 | 4.00 to 5.00 | 4.00 to 5.00 | 5.00 to 6.00 | 5.00 to 6.00 | – | – |
| CC(C)(C)OC(=O)Nc1ncsc1C#CCN1C(=O)c2ccccc2C1=O [Compound A26, tert-butyl{5-[3-(1,3-dioxo-1,3-dihydroisoindol-2-yl)prop-1-ynyl]-thiazol-4-yl}carbamate] | 4.00 to 5.00 | 6.00 to 8.00 | 24 | 5.00 to 6.00 | 5.00 to 6.00 | – | 5.00 to 6.00 | < 6.00 | 4.00 to 5.00 | < 6.00 | < 6.00 | 4.00 to 5.00 | – | – |
| Nc1ncsc1C#Cc1cccc(O)c1 [Compound A27, 3-(4-aminothiazol-5-ylethynyl)phenol] | < 6.00 | 6.00 to 8.00 | 49 | < 6.00 | 5.00 to 6.00 | – | 4.00 to 5.00 | 4.00 to 5.00 | 5.00 to 6.00 | 4.00 to 5.00 | 5.00 to 6.00 | 5.00 to 6.00 | – | – |
